# Data reported in PMC11322497 (Frontiers in Pharmacology, 2024).
# Read-outs that look alike come from different tables or passages of the source.
# Assays:
# [1] = In vitro plasma protein binding in rabbit blood (rapid equilibrium dialysis, LC-MS/MS); format: in vitro ADME; conditions: nominal 0.2, 2 and 20 μg/mL, read-out: unbound free fraction
# rabbit galectin-3 = molecular target: T1, rabbit galectin-3 (Oryctolagus cuniculus, UniProt P47845); assay: Galectins fluorescence polarization binding assay
# T1 construct: made in house
# T1 sequence (P47845 whole entry): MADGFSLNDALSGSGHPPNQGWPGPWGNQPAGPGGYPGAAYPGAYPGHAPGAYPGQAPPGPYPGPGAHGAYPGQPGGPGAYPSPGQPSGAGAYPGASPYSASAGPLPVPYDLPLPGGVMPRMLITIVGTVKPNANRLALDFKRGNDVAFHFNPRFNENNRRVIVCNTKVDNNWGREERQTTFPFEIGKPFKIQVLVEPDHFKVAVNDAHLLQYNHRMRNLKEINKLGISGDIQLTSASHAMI
# Method: Briefly, FP was measured from above in 96-well microtiter plates (black polystyrene; Costar, Corning, NY) using a POLARStar® instrument (BMG Labtech, Ortenberg, Germany). The final sample volume in each well was 200 μL. For inhibition assays, 100 μL of galectin and probe at fixed concentration was mixed with 100 μL of inhibitor solution and FP was measured as described above. Control wells containing only fluorescent probe or fluorescein were included.
# All dilutions and measurements were done in PBS with plates incubated at room temperature for 1 h.
# [2] = tested on: high fat diet (HFD) rabbit model of metabolic-associated steatohepatitis (MASH); assay: HFD rabbit study, prolonged 4-week treatment (weeks 9–12): clinical and biochemical data; format: in vivo, New Zealand White rabbits; conditions: HFD rabbits, mean±SD, n=7
# Method: After 1 week (W) of RD, the animals (n = 44) were randomly assigned to the following groups (Table 1B): • Control rabbits continued to receive a RD for 12 weeks and were treated with vehicle for 5 days a week (days 1–5, p.o.) during the last 4 weeks before culling (RD + 4W Veh group); • Rabbits received a HFD for 8 weeks and were culled (HFD 8W group); • Rabbits received a HFD for 12 weeks and were treated with vehicle for 5 days a week (days 1–5, p.o.) during the last 4 weeks before culling (HFD+4W Veh group); • Rabbits received a HFD for 12 weeks and were treated with GB1211 (0.3 mg/kg) for 5 days a week (days 1–5, p.o.) during the last 4 weeks before culling (HFD + 4W 0.3 mg group); • Rabbits received a HFD for 12 weeks and were treated with GB1211 (1.0 mg/kg) for 5 days a week (days 1–5, p.o.) during the last 4 weeks before culling (HFD + 4W 1.0 mg group); • Rabbits received a HFD for 12 weeks and were treated with GB1211 (5.0 mg/kg) for 5 days a week (days 1–5, p.o.) during the last 4 weeks before culling (HFD + 4W 5.0 mg group).
# The oral glucose tolerance test (OGTT) was performed in accordance with the published method ([Filippi et al., 2009]). Briefly, after an overnight fast, a 50% glucose solution was orally administered to the animals at a dose of 1.5 g/kg. Blood samples were collected before and 15, 30, and 120 min after glucose loading. The incremental area under the curve (iAUC) was calculated by using GraphPad Prism (GraphPad Software, San Diego, CA). Blood samples for analyses were obtained from the marginal ear vein at week 8 or 12, in all groups. All blood samples were collected in standard conditions, before 10 a.m. after an overnight fasting. The blood was immediately centrifuged at 2,000 g for 20 min at 4°C and collected plasma/serum stored at −80°C until assayed. Plasma glucose, total cholesterol, triglycerides, transaminases (AST and ALT), and gamma-glutamyl transferase levels were measured using an automated system (Cobas 8000, Roche Diagnostics International AG, Rotkreuz, Switzerland). Serum alkaline phosphatase, albumin and total bilirubin levels were measured at IDEXX Laboratories (Kornwestheim, Germany), using an automated system (AU480, Beckman-Coulter, Brea, CA) with kinetic and photometric colour tests as per the following methods: alkaline phosphatase - alkaline buffer solution [2-amino-2-methylpropanol (AMP) in conjunction with p-nitrophenyl phosphate (pNPP)], according to the recommendation of the International Federation for Clinical Chemistry; albumin - the reaction of bromocresol green with albumin produces a colour complex, the absorption of which is measured dichromatically ([Doumas et al., 1971]); total bilirubin - a stabilized diazonium salt, 3,5-dichlorophenyldiazonium tetrafluoroborate (DPD), reacts with bilirubin to formazobilirubin, which absorbs at 570 nm ([Tolman and Rej, 1999]).
# Mean arterial blood pressure (MAP) was measured by using a polyethylene catheter inserted into a femoral artery at week 8 or 12, after ketamine (10 mg/kg i.v.) and sodium thiopental (50 mg/kg i.v.) sedation.
smiles,measurement,setting,value
OC[C@H]1O[C@H](Sc2cncc(Br)c2)[C@H](O)[C@@H](n2cc(-c3cc(F)c(F)c(F)c3)nn2)[C@H]1O [selvigaltin],fraction unbound,[1],0.141
same,Kd,"rabbit galectin-3; equivalent to KD of 12 nM, read-out: rabbit galectin-3 KD, equivalent concentration (converted)",0.012 µM
same,Kd,"rabbit galectin-3; fluorescence polarization, mean ± SD, n = 3, read-out: KD rabbit galectin-3",0.012 µM
same,ALP,[2]; 0.3 mg/kg p.o. 5 days/week,69.43 ± 38.22 U/L
same,ALT,[2]; 0.3 mg/kg p.o. 5 days/week,45.71 ± 22.51 U/L
same,AST,[2]; 0.3 mg/kg p.o. 5 days/week,74.29 ± 51.50 U/L
same,Albumin,[2]; 0.3 mg/kg p.o. 5 days/week,38.29 ± 4.42 g/L
same,Bilirubin,[2]; 0.3 mg/kg p.o. 5 days/week,17.91 ± 13.00 µM
same,Glycaemia,[2]; 0.3 mg/kg p.o. 5 days/week,1.21 ± 0.15 gr/L
same,Liver Weight,[2]; 0.3 mg/kg p.o. 5 days/week,3.56 ± 0.28 % of BW
same,MAP,[2]; 0.3 mg/kg p.o. 5 days/week,144.91 ± 16.18 mmHg
same,OGTT (iAUC),[2]; 0.3 mg/kg p.o. 5 days/week,165.51 ± 20.71
same,Plasma Cholesterol,[2]; 0.3 mg/kg p.o. 5 days/week,"2,277.43 ± 1,078.47 mg/dL"
same,Plasma Triglycerides,[2]; 0.3 mg/kg p.o. 5 days/week,374.00 ± 619.70 mg/dL
same,Tissue Triglycerides,[2]; 0.3 mg/kg p.o. 5 days/week,14.76 ± 2.26 nmol/mg Liver
same,VAT Weight,[2]; 0.3 mg/kg p.o. 5 days/week,0.67 ± 0.21 % of BW
same,γGT,[2]; 0.3 mg/kg p.o. 5 days/week,30.08 ± 22.90 U/L
same,ALP,[2]; 1.0 mg/kg p.o. 5 days/week,72.86 ± 65.69 U/L
same,ALT,[2]; 1.0 mg/kg p.o. 5 days/week,58.14 ± 27.72 U/L
same,AST,[2]; 1.0 mg/kg p.o. 5 days/week,59.00 ± 37.48 U/L
same,Albumin,[2]; 1.0 mg/kg p.o. 5 days/week,38.71 ± 2.63 g/L
same,Bilirubin,[2]; 1.0 mg/kg p.o. 5 days/week,9.53 ± 3.73 µM
same,Glycaemia,[2]; 1.0 mg/kg p.o. 5 days/week,1.90 ± 0.87 gr/L
same,Liver Weight,[2]; 1.0 mg/kg p.o. 5 days/week,3.73 ± 0.32 % of BW
same,MAP,[2]; 1.0 mg/kg p.o. 5 days/week,151.23 ± 26.21 mmHg
same,OGTT (iAUC),[2]; 1.0 mg/kg p.o. 5 days/week,189.37 ± 22.39
same,Plasma Cholesterol,[2]; 1.0 mg/kg p.o. 5 days/week,"2,182.86 ± 776.09 mg/dL"
same,Plasma Triglycerides,[2]; 1.0 mg/kg p.o. 5 days/week,157.29 ± 68.66 mg/dL
same,Tissue Triglycerides,[2]; 1.0 mg/kg p.o. 5 days/week,14.34 ± 1.35 nmol/mg Liver
same,VAT Weight,[2]; 1.0 mg/kg p.o. 5 days/week,0.68 ± 0.24 % of BW
same,γGT,[2]; 1.0 mg/kg p.o. 5 days/week,27.71 ± 14.16 U/L
same,ALP,[2]; 5.0 mg/kg p.o. 5 days/week,49.57 ± 30.84 U/L
same,ALT,[2]; 5.0 mg/kg p.o. 5 days/week,56.43 ± 20.02 U/L
same,AST,[2]; 5.0 mg/kg p.o. 5 days/week,62.43 ± 15.80 U/L
same,Albumin,[2]; 5.0 mg/kg p.o. 5 days/week,39.29 ± 5.94 g/L
same,Bilirubin,[2]; 5.0 mg/kg p.o. 5 days/week,15.45 ± 9.05 µM
same,Glycaemia,[2]; 5.0 mg/kg p.o. 5 days/week,1.43 ± 0.35 gr/L
same,Liver Weight,[2]; 5.0 mg/kg p.o. 5 days/week,3.56 ± 0.16 % of BW
same,MAP,[2]; 5.0 mg/kg p.o. 5 days/week,141.04 ± 30.52 mmHg
same,OGTT (iAUC),[2]; 5.0 mg/kg p.o. 5 days/week,165.00 ± 2.65
same,Plasma Cholesterol,[2]; 5.0 mg/kg p.o. 5 days/week,"1,546.43 ± 350.47 mg/dL"
same,Plasma Triglycerides,[2]; 5.0 mg/kg p.o. 5 days/week,191.43 ± 234.40 mg/dL
same,Tissue Triglycerides,[2]; 5.0 mg/kg p.o. 5 days/week,14.51 ± 1.49 nmol/mg Liver
same,VAT Weight,[2]; 5.0 mg/kg p.o. 5 days/week,0.87 ± 0.32 % of BW
same,γGT,[2]; 5.0 mg/kg p.o. 5 days/week,21.29 ± 13.11 U/L
